In ChEMBL document CHEMBL1135518 (J Med Chem, 2002) one finds IC50, Ki and Increase data, which are given here for 4 compounds.

The target of test [1] is 5-hydroxytryptamine receptor 2A (Rattus norvegicus, UniProt P14842). The test can be described thus: The binding affinity at 5-hydroxytryptamine 2A receptor was determined using [3H]ketanserin.
The target of test [2] is T1, Adrenergic receptor alpha-2 (Rattus norvegicus, UniProt P22086+P19328+P22909).
T1 sequence (P22086 whole entry): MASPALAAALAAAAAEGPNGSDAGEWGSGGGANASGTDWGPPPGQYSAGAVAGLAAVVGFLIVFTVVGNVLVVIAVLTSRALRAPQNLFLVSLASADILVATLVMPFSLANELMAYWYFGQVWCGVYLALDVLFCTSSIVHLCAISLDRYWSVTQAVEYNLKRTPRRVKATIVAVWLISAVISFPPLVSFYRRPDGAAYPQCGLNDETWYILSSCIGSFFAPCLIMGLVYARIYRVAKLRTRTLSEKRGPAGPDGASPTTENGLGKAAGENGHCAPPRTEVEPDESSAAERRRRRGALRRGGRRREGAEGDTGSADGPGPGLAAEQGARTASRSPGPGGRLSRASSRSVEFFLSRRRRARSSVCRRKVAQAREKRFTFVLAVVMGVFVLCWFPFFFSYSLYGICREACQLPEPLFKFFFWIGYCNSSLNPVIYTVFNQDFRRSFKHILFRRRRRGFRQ
T1 sequence (P19328 whole entry): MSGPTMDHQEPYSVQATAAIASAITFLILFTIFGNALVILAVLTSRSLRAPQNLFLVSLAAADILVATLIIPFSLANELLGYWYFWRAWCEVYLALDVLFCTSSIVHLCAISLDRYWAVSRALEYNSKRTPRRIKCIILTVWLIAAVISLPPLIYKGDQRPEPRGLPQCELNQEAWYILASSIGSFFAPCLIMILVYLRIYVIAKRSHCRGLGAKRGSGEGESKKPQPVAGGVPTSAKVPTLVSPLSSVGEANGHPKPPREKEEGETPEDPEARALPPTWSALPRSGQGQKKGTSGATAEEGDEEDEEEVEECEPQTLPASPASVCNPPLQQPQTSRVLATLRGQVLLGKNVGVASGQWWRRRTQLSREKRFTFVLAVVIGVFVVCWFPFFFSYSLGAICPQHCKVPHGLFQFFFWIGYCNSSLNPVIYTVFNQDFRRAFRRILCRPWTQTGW
T1 sequence (P22909 whole entry): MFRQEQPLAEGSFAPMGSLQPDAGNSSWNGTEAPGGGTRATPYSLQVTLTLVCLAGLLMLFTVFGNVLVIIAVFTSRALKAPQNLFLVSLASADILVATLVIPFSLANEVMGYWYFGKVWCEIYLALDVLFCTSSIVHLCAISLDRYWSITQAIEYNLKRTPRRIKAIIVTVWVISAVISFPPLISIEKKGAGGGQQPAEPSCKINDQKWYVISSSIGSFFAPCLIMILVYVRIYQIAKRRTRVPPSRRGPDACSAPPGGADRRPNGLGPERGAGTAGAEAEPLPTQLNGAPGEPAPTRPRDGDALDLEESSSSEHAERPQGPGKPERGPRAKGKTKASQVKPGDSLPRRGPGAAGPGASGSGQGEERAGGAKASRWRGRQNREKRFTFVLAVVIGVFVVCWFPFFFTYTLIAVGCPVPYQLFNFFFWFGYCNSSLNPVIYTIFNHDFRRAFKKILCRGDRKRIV
The test can be described thus: The binding affinity at the Alpha-2 adrenergic receptor determined using [3H]RX-821002; Not tested. The test is classed as protein assay.

The nature of test [3]: The binding affinity at the Histamine H1 receptor determined using [3H]pyrilamine. Further details: species or system Cavia porcellus.
Test [4] deals with Norepinephrine transporter (Rattus norvegicus, UniProt Q9WTR4). The test can be described thus: The binding affinity at the Norepinephrine transporter reuptake sites determined using competition binding assay.
Test [5] relates to Rattus norvegicus. The test can be described thus: The increase in the extracellular levels of DOPAC in the rat ventral hippocampus at a dose of 5.0 mg/kg sc measured by in vivo microdialysis. The test is classed as functional. The following applies: route subcutaneous.
Test [6] deals with T2, Adrenergic receptor alpha-1 (Rattus norvegicus, UniProt P15823+P23944+P43140).
T2 sequence (P15823 whole entry): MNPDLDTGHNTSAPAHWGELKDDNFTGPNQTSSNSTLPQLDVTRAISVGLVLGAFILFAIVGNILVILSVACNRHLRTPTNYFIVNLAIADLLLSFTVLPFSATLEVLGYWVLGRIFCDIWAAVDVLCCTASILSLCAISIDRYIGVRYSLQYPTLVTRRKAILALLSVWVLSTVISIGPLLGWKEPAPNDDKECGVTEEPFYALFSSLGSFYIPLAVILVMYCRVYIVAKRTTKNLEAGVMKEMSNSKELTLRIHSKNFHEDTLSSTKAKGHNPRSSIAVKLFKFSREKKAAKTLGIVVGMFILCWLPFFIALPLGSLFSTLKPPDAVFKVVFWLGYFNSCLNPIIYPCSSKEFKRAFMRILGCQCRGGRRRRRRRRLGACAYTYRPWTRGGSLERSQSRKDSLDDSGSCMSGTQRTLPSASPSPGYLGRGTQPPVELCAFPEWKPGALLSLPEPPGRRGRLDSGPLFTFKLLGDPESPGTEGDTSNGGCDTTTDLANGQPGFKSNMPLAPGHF
T2 sequence (P23944 whole entry): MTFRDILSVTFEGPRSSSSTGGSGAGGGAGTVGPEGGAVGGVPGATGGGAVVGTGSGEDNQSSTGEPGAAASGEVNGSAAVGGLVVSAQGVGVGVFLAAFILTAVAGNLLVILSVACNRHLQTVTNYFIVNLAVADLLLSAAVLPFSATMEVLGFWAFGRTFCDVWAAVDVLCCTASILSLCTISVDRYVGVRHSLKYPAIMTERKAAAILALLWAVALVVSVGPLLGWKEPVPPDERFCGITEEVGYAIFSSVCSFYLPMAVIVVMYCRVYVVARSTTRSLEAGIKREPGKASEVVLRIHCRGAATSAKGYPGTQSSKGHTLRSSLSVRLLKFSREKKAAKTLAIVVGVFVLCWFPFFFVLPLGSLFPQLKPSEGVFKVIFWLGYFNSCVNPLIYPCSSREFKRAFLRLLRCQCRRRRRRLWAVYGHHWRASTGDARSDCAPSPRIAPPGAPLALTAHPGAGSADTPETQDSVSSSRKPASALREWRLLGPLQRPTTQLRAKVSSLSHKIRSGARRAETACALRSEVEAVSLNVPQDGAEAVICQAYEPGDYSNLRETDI
T2 sequence (P43140 whole entry): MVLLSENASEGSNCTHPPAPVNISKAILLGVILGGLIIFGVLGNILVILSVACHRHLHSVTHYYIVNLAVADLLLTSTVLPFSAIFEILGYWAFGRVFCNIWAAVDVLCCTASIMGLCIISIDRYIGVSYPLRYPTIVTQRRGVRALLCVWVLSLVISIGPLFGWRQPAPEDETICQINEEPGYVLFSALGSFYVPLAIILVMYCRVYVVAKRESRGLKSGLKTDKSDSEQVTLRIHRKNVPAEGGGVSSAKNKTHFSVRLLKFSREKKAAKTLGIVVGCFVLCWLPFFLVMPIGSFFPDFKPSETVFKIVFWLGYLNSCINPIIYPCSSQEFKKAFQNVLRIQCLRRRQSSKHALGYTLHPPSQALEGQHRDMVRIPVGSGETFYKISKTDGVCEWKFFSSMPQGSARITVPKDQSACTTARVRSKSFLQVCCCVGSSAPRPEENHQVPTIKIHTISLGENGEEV
The test can be described thus: The binding affinity at Alpha-1 adrenergic receptor determined using [3H]prazosin. The test is classed as protein assay.

The target in test [7] is T3, 5-hydroxytryptamine receptor 2C (Rattus norvegicus, UniProt P08909).
T3 sequence (P08909 whole entry): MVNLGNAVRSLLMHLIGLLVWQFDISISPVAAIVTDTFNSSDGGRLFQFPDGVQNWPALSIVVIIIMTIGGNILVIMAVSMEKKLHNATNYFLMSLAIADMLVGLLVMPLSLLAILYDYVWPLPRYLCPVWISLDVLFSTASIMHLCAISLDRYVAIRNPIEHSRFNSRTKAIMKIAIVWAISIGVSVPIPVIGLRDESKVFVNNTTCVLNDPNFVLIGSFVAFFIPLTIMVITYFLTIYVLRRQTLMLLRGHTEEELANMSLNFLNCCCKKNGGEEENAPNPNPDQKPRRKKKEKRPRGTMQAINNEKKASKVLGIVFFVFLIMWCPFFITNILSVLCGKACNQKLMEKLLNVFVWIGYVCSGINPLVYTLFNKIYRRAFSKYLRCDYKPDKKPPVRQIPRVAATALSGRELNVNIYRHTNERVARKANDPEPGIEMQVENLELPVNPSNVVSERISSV
The test can be described thus: The binding affinity at 5-hydroxytryptamine 2C receptor was determined using [3H]mesulergine.

Another test concerns the target T4, D(4) dopamine receptor (Homo sapiens, UniProt P21917).
T4 sequence (P21917 whole entry): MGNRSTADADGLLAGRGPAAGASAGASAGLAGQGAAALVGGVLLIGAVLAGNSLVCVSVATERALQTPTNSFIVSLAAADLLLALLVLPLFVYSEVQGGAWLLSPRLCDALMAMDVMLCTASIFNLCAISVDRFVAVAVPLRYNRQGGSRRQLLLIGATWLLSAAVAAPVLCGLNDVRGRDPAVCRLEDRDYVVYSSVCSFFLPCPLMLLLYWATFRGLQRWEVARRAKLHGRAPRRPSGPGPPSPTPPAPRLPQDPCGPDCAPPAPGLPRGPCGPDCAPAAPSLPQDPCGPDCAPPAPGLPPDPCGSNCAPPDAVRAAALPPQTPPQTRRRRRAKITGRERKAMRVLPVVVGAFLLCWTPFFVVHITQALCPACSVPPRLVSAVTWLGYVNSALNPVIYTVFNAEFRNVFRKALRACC
The test can be described thus: The binding affinity at the Dopamine receptor D4 determined using [3H]YM-09151-2.

The test system of test [8] is Rattus norvegicus. The test can be described thus: The increase in the extracellular levels of 5-HT in the rat ventral hippocampus at a dose of 5.0 mg/kg sc measured by in vivo microdialysis. The note with it: route subcutaneous. The test is classed as functional.
For test [9], the target named is Sodium-dependent serotonin transporter (Rattus norvegicus, UniProt P31652). The test can be described thus: The binding affinity at the 5-HT reuptake sites determined using competition binding assay.

One may read the IC50 as the midpoint of a concentration-inhibition curve. Low values mean greater potency in that assay, high ones weaker potency in that assay. Usually Ki stands for the dissociation constant of the complex between target and ligand, obtained from inhibition or displacement.

Chain of Norepinephrine transporter (Q9WTR4 whole entry): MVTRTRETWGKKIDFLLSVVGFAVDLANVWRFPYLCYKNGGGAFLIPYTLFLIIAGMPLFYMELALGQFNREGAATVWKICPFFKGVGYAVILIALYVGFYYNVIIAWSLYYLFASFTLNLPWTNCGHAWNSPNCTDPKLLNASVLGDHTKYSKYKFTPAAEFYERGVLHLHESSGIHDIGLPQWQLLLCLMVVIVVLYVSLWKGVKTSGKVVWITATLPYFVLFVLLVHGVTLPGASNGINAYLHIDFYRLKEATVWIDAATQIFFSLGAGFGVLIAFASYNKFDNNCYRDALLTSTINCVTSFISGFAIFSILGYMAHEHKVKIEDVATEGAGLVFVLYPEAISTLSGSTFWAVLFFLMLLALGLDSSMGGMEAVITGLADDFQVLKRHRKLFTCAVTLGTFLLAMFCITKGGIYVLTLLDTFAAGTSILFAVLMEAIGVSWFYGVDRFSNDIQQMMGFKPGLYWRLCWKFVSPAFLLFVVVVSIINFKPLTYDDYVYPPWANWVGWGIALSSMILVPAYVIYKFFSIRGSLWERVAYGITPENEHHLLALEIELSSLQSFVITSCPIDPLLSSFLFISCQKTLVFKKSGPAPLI
Chain of 5-hydroxytryptamine receptor 2A (P14842 whole entry): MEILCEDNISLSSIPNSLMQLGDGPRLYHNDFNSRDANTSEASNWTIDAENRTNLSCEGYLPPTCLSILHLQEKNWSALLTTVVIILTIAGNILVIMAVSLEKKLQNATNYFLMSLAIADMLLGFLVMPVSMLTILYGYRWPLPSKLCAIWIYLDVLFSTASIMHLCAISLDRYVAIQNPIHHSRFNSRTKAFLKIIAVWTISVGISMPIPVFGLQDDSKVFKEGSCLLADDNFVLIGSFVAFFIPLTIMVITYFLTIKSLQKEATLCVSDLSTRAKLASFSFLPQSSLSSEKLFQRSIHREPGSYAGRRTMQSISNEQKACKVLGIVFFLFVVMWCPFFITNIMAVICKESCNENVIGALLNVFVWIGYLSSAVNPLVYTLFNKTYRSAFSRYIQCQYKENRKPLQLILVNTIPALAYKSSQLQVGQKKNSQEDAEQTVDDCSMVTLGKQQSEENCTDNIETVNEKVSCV
Chain of Sodium-dependent serotonin transporter (P31652 whole entry): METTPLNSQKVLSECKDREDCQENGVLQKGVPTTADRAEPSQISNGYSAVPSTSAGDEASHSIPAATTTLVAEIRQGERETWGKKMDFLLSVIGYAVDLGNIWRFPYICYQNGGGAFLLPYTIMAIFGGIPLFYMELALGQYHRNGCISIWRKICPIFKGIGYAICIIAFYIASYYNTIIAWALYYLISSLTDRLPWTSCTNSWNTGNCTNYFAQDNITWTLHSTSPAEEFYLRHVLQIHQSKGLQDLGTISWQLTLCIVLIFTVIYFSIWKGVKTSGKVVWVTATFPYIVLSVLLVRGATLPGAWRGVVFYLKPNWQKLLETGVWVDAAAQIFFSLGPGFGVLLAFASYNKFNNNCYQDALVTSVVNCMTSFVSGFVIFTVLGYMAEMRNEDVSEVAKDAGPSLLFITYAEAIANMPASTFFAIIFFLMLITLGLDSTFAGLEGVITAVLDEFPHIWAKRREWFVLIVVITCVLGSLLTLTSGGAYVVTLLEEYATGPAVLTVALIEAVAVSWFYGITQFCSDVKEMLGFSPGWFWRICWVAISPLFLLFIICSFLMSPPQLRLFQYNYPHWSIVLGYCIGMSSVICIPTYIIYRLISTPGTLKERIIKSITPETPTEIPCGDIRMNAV

Consider `CN1CCN2c3c(cccc3OS(=O)(=O)C(F)(F)F)Cc3ccccc3C2C1` (racemic), for which the IC50 in test [1] amounted to 277 nM; in test [2], 1000 nM.
Take `CN1CCN2c3ccccc3Cc3ccccc3C2C1` (racemic) [MIANSERIN]: in [3], affinity was put at a Ki of 4.2 nM. This compound also showed an IC50 in [4] of 22 nM. In the test with Rattus norvegicus [5], the Increase amounted to 160%.
Regarding `CN1CCN2c3c(O)cccc3Cc3ccccc3C2C1` (racemic), the IC50 in test [1] turned out to be 12 nM; in [2], 1000 nM. The Ki in test [6] came out at 1000 nM; in [3], 21 nM; in [7] it was 2 nM.
As for `CN1CCN2c3ncccc3Cc3ccccc3C2C1` (racemic) [MIRTAZAPINE], the Ki is 1050 nM in [6], greater than 25 nM at D(4) dopamine receptor, 5.1 nM in [3] and 5.5 nM in test [7]. Besides, the IC50 in [4] is 260 nM; in test [9], greater than 100 nM. For the same compound, the Increase in the test with Rattus norvegicus [8] is 180%; in the test with Rattus norvegicus [5], 200%.
